Test results as given in patent EP1859811B1, “Use of conjugates of amatoxins or phallotoxins with macromolecules for tumor and inflammation therapy” (Faulstich, Heinz, Dr., priority 2006, dated 2007).
pKd: −log10 of the molar value.

Experiments:
actin = test: binding to actin
[1] = target: DNA-dependent RNA polymerase II of mammalian cells (Homo sapiens, UniProt P24928+P30876); conditions: complex between amanitin and RNA-polymerase II; cited from earlier work
Jurkat = test: inhibition of proliferation by [3H]thymidine incorporation, Jurkat; format: cell-based; conditions: Jurkat cells (CD3); Fig.3
Method: Monoclonal antibodies were conjugated with ß-amanitin-N-hydoxysuccinimide ester by incubating the antibody in PBS (2mg/mL) with 10-30 equivalents of the activated ß-amanitin derivative at 4°C under gentle shaking. After reaction for 16h the protein derivative was separated from unreacted amanitin by gelfiltration chromatography on Sephadex G25 using PBS as solvent. The combined protein fractions were concentrated to a protein concentration of ca 2 mg/mL and a toxin concentration of ca. 5 x 10^-5M. The ratio toxin : mAB was in the range of 5-15 : 1.
Three different cell lines, MCF-7, Jurkat, and Raji, exposing the specific receptors EpCAM, CD3, and CD71, respectively, were tested for the inhibition of proliferation by such ß-amanitin-monoclonal antibody conjugates, as followed by [^3H]thymidine incorporation. […] In all cases was amanitin conjugated to a specific antibody distinctly more toxic to the corresponding cell line than free amanitin, or amanitin conjugated to unspecific antibodies.

Jurkat cells = test: apoptosis in cultures of Jurkat cells incubated with toxin; format: cell-based; conditions: own unpublished results
Description: Amatoxins (α-amanitin, β-amanitin, amanin) are cyclic peptides composed of 8 amino acids. They can be isolated from Amanita phalloides mushrooms or prepared from the building blocks by synthesis. Amatoxins inhibit specifically the DNA-dependent RNA polymerase II of mammalian cells, and by this transcription and protein biosynthesis of the cells affected. Inhibition of transcription in a cell causes stop of growth and proliferation. Though not covalently bound, the complex between amanitin and RNA-polymerase II is very tight (KD = 3nM). Dissociation of amanitin from the enzyme is a very slow process what makes recovery of an affected cell unlikely.
Phallotoxins (phalloidin, phallacidin, aminophalloidin) are cyclic peptides composed of 7 aminoacids. They bind specifically to the cytoskeletal protein actin in its polymeric form (microfilaments). By this, they prevent depolymerization of the microfilaments and disturb the proper function of the actin cytoskeleton. The actin cytoskeleton is a dense meshwork of microfilaments undergoing, under the control of actin-associated proteins, rapid cycles of assembly and disassembly essential for dynamic processes such as cell division and migration. Likewise, invasion by metastatic cells is thought to be dependent on actin. […]

## thiopropionyl-aminophalloidin
actin
  actin binding compared with phalloidin: binds actin as tightly as phalloidin itself

## amanitin
[1]
  pKd: 8.52

## OKT3
Jurkat
  times more inhibitory for the proliferation than the amanitin conjugate of an unspecific monoclonal antibody (ALH-419): 330 times

## phalloidin oleate
Jurkat cells
  programmed cell death (apoptosis): caused apoptosis

## α-amanitin
Jurkat cells
  programmed cell death (apoptosis): undergoes programmed cell death (apoptosis)
